Data on 25 compounds can be found in patent US12570642B2, “GLP-IR modulating compounds” (Gilead Sciences, Inc., priority 2021, dated 2026).

The experiment has as its target GLP-1R (Homo sapiens, UniProt P43220). Description: GLP-1R Activation - cAMP Assay. The format is cell-based. The settings on record: cAMP increase in CHO cells stably expressing GLP-1R; each compound run on one of the two cAMP assays (Assay 1 or Assay 2, not specified). In outline:
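CHO cells stably expressing GLP-1R, plated at 1,000 cells/well overnight, then equilibrated 1 h in HBSS with 20 mM Hepes and 0.1% BSA. Agonist added as 10-point dose response for 30 min at 37 °C. cAMP measured by HTRF (Cisbio Gs Dynamic kit); EC50 from sigmoidal fit.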

Chain of GLP-1R (P43220 24-463): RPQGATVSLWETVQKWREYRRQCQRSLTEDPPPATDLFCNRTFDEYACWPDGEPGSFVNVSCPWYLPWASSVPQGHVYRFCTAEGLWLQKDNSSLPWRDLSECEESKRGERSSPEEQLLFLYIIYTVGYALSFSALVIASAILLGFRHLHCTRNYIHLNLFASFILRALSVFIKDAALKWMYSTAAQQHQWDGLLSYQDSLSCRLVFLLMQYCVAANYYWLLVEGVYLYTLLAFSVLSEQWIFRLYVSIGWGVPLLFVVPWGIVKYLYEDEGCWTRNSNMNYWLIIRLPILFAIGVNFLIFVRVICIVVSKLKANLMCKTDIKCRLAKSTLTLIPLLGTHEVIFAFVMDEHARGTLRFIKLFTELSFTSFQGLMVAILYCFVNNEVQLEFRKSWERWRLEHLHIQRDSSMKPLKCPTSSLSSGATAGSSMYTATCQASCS

The compound `COCCn1c(Cc2cc(F)c(-c3cccc(OCc4cnc(-n5nc6c(n5)CCCC6)cc4Cl)n3)cc2F)nc2ccc(C(=O)O)cc21` [Example 567, 2-(4-(6-((4-chloro-6-(4,5,6,7-tetrahydro-2H-benzo[d][1,2,3]triazol-2-yl)pyridin-3-yl)methoxy)pyridin-2-yl)-2,5-difluorobenzyl)-1-(2-methoxyethyl)-1H-benzo[d]imidazole-6-carboxylic acid] registered an EC50 of 100 nM.

Take `CC1(C)CC(n2c(Cc3cc(F)c(-c4cccc(OCc5ccc(C#N)cc5F)n4)cc3F)nc3ccc(C(=O)O)cc32)C(C)(C)O1` (stereo not shown) [Example 199, 2-(4-(6-((4-cyano-2-fluorobenzyl)oxy)pyridin-2-yl)-2,5-difluorobenzyl)-1-(2,2,5,5-tetramethyltetrahydrofuran-3-yl)-1H-benzo[d]imidazole-6-carboxylic acid]: the EC50 worked out at 90.9 nM.

For `Cc1cc(Cc2nc3ccc(C(=O)O)cc3n2[C@@H]2COCC2(C)C)c(F)cc1-c1ccc(F)c(OCc2ccc(C#N)cc2F)n1` [Example 279, (S)-2-(4-(6-((4-cyano-2-fluorobenzyl)oxy)-5-fluoropyridin-2-yl)-2-fluoro-5-methylbenzyl)-1-(4,4-dimethyltetrahydrofuran-3-yl)-1H-benzo[d]imidazole-6-carboxylic acid], the EC50 came out at 0.195 nM.

The compound `Cc1cc(Cc2nc3ccc(C(=O)O)cc3n2[C@@H]2COCC2(C)C)c(Cl)cc1-c1ccc(F)c(OCc2ccc(C#N)cc2)n1` [Example 135, (S)-2-(2-chloro-4-(6-((4-cyanobenzyl)oxy)-5-fluoropyridin-2-yl)-5-methylbenzyl)-1-(4,4-dimethyltetrahydrofuran-3-yl)-1H-benzo[d]imidazole-6-carboxylic Acid] had an EC50 of 0.361 nM.

In turn, `CC1(C)COC[C@H]1n1c(Cc2cc(F)c(-c3cccc(OCc4ccc(C#N)cc4F)n3)cc2F)nc2cnc(C(=O)O)cc21` [Example 422, (S)-2-(4-(6-((4-cyano-2-fluorobenzyl)oxy)pyridin-2-yl)-2,5-difluorobenzyl)-1-(4,4-dimethyltetrahydrofuran-3-yl)-1H-imidazo[4,5-c]pyridine-6-carboxylic acid] yielded an EC50 of 3.16 nM.

Consider `CC1(C)COC[C@H]1n1c(Cc2cc(F)c(-c3ccc(F)c(OCc4cc(F)c(C#N)cc4F)n3)cc2F)nc2c(F)cc(C(=O)O)cc21` [Example 483, (S)-2-(4-(6-((4-cyano-2,5-difluorobenzyl)oxy)-5-fluoropyridin-2-yl)-2,5-difluorobenzyl)-1-(4,4-dimethyltetrahydrofuran-3-yl)-4-fluoro-1H-benzo[d]imidazole-6-carboxylic acid], for which the response was half-maximal at 0.022 nM (EC50).

Turning to `CC1(C)COC[C@H]1n1c(Cc2cc(F)c(-c3ccnc(OCc4ccc(-n5ccnn5)cc4)n3)cc2F)nc2ccc(C(=O)O)cc21` [Example 182, (S)-2-(4-(2-((4-(1H-1,2,3-triazol-1-yl)benzyl)oxy)pyrimidin-4-yl)-2,5-difluorobenzyl)-1-(4,4-dimethyltetrahydrofuran-3-yl)-1H-benzo[d]imidazole-6-carboxylic Acid], it took 0.178 nM to reach a half-maximal effect (EC50).

Regarding `CC1(C)COC[C@H]1n1c(Cc2c(F)cc(-c3ccc(F)c(OCc4ccc(Cl)cc4)n3)c(F)c2F)nc2ccc(C(=O)O)cc21` [Example 282, (S)-2-(4-(6-((4-chlorobenzyl)oxy)-5-fluoropyridin-2-yl)-2,3,6-trifluorobenzyl)-1-(4,4-dimethyltetrahydrofuran-3-yl)-1H-benzo[d]imidazole-6-carboxylic acid], the EC50 is 0.192 nM.

In turn, `N#Cc1ccc(COc2cccc(-c3cc(F)c(Cc4nc5ccc(C(=O)O)cc5n4C4COC5(CC5)C4)cc3F)n2)c(F)c1` (stereo not shown) [Example 203, 2-(4-(6-((4-cyano-2-fluorobenzyl)oxy)pyridin-2-yl)-2,5-difluorobenzyl)-1-(4-oxaspiro[2.4]heptan-6-yl)-1H-benzo[d]imidazole-6-carboxylic acid] displayed an EC50 of 38.3 nM.

As for `CC1(C)COC[C@H]1n1c(Cc2ccc(-c3ccc(F)c(OCc4ccc(C#N)cc4F)n3)c(F)c2)nc2ccc(C(=O)O)cc21` [Example 369, (S)-2-(4-(6-((4-cyano-2-fluorobenzyl)oxy)-5-fluoropyridin-2-yl)-3-fluorobenzyl)-1-(4,4-dimethyltetrahydrofuran-3-yl)-1H-benzo[d]imidazole-6-carboxylic acid], the EC50 is 0.364 nM.

For the compound `CO[C@H](C)Cn1c(Cc2cc(F)c(-c3cccc(OCc4ccc(C#N)cc4)n3)cc2F)nc2c(F)cc(C(=O)O)cc21` [Example 381, (R)-2-(4-(6-((4-cyanobenzyl)oxy)pyridin-2-yl)-2,5-difluorobenzyl)-4-fluoro-1-(2-methoxypropyl)-1H-benzo[d]imidazole-6-carboxylic acid], the midpoint of the response, the EC50, lay at 0.267 nM.

`CC1(C)COC[C@H]1n1c(Cc2ccc(-c3cccc(OCc4cnc(-n5ccnn5)cc4Cl)n3)cc2F)nc2ccc(C(=O)O)cc21` [Example 158, (S)-2-(4-(6-((4-chloro-6-(1H-1,2,3-triazol-1-yl)pyridin-3-yl)methoxy)pyridin-2-yl)-2-fluorobenzyl)-1-(4,4-dimethyltetrahydrofuran-3-yl)-1H-benzo[d]imidazole-6-carboxylic Acid] came in with an EC50 of 0.032 nM.

For the compound `COCCn1c(Cc2cc(F)c(-c3cccc(OCc4ccc(C#N)cc4)n3)cc2F)nc2c(F)cc(C(=O)O)cc21` [Example 382, 2-(4-(6-((4-cyanobenzyl)oxy)pyridin-2-yl)-2,5-difluorobenzyl)-4-fluoro-1-(2-methoxyethyl)-1H-benzo[d]imidazole-6-carboxylic acid], a half-maximal effect (EC50) was put at 0.604 nM.

On to `N#Cc1ccc(COc2cccc(-c3cc(F)c(Cc4nc5ccc(C(=O)O)cc5n4C4COC5CC4C5)cc3F)n2)c(F)c1` (stereo not shown) [Example 68, 1-(2-oxabicyclo[3.1.1]heptan-4-yl)-2-(4-(6-((4-cyano-2-fluorobenzyl)oxy)pyridin-2-yl)-2,5-difluorobenzyl)-1H-benzo[d]imidazole-6-carboxylic Acid], for which the EC50 is 0.33 nM.

Take `COCCn1c(Cc2cc(F)c(-c3cccc(OCc4ccc(-n5ccnn5)nc4)n3)cc2F)nc2c(F)cc(C(=O)O)cc21` [Example 221, 2-(4-(6-((6-(1H-1,2,3-triazol-1-yl)pyridin-3-yl)methoxy)pyridin-2-yl)-2,5-difluorobenzyl)-4-fluoro-1-(2-methoxyethyl)-1H-benzo[d]imidazole-6-carboxylic acid]: a half-maximal response (EC50) required 0.508 nM.

In turn, `CC1(C)COC[C@H]1n1c(Cc2ccc(-c3ccc(F)c(OCc4ccc(C#N)cc4F)n3)cc2F)nc2ccc(C(=O)O)cc21` [Example 330] displayed an EC50 of 0.011 nM.

For the compound `CC1(C)COC[C@H]1n1c(Cc2ccc(-c3cccc(OCc4ccc(Cl)cc4F)n3)cc2F)nc2c(F)cc(C(=O)O)cc21` [Example 329, (S)-2-(4-(6-((4-chloro-2-fluorobenzyl)oxy)pyridin-2-yl)-2-fluorobenzyl)-1-(4,4-dimethyltetrahydrofuran-3-yl)-4-fluoro-1H-benzo[d]imidazole-6-carboxylic acid], it took 0.062 nM to reach a half-maximal effect (EC50).

The compound `CC1(C)COC[C@H]1n1c(Cn2cc(Cl)c(-c3cccc(OCc4ccc(Cl)cc4F)n3)cc2=O)nc2c(F)cc(C(=O)O)cc21` [Example 327, (S)-2-((5′-chloro-6-((4-chloro-2-fluorobenzyl)oxy)-2′-oxo-[2,4′-bipyridin]-1′(2′H)-yl)methyl)-1-(4,4-dimethyltetrahydrofuran-3-yl)-4-fluoro-1H-benzo[d]imidazole-6-carboxylic acid] had an EC50 of 0.266 nM.

With `CC1(C)COC[C@H]1n1c(Cc2cc(F)c(-c3cccc(OCc4ccc(Cl)cc4C(F)(F)F)n3)cc2F)nc2ccc(C(=O)O)cc21` [Example 469, (S)-2-(4-(6-((4-chloro-2-(trifluoromethyl)benzyl)oxy)pyridin-2-yl)-2,5-difluorobenzyl)-1-(4,4-dimethyltetrahydrofuran-3-yl)-1H-benzo[d]imidazole-6-carboxylic acid], the response was half-maximal at 1.6 nM (EC50).

`CC1(C)COC[C@H]1n1c(Cc2cc(F)c(-c3ccc(F)c(OCc4ccc(Cl)cc4F)c3)cc2F)nc2ccc(C(=O)O)cc21` [Example 509, (S)-2-((3′-((4-chloro-2-fluorobenzyl)oxy)-2,4′,5-trifluoro-[1,1′-biphenyl]-4-yl)methyl)-1-(4,4-dimethyltetrahydrofuran-3-yl)-1H-benzo[d]imidazole-6-carboxylic acid] registered an EC50 of 0.144 nM.

The compound `CC1(C)COC[C@@H]1n1c(Cc2c(F)cc(-c3cccc(OCc4ccc(C#N)cc4F)n3)c(F)c2F)nc2c(F)cc(C(=O)O)cc21` [Example 123] registered an EC50 of 0.528 nM.

On to `CC1(C)COC[C@H]1n1c(Cc2cc(F)c(-c3cccc(OCc4ccc(C#N)cc4F)n3)cc2F)nc2ccc(C(=O)O)nc21` [Example 439, (S)-2-(4-(6-((4-cyano-2-fluorobenzyl)oxy)pyridin-2-yl)-2,5-difluorobenzyl)-3-(4,4-dimethyltetrahydrofuran-3-yl)-3H-imidazo[4,5-b]pyridine-5-carboxylic acid], for which the EC50 was 0.171 nM.

As for `Cc1cc(Cc2nc3ccc(C(=O)O)cc3n2[C@@H]2COCC2(C)C)c(Cl)cc1-c1ccnc(OCc2ccc(C#N)cc2)n1` [Example 301, (S)-2-(2-chloro-4-(2-((4-cyanobenzyl)oxy)pyrimidin-4-yl)-5-methylbenzyl)-1-(4,4-dimethyltetrahydrofuran-3-yl)-1H-benzo[d]imidazole-6-carboxylic acid], the EC50 was found to be 0.714 nM.

On to `Cc1cc(COc2cccc(-c3cc(F)c(Cc4nc5ccc(C(=O)O)cc5n4[C@@H]4COCC4(C)C)cc3F)n2)c(F)cc1Cl` [Example 450, (S)-2-(4-(6-((4-chloro-2-fluoro-5-methylbenzyl)oxy)pyridin-2-yl)-2,5-difluorobenzyl)-1-(4,4-dimethyltetrahydrofuran-3-yl)-1H-benzo[d]imidazole-6-carboxylic acid], for which the EC50 worked out at 1.04 nM.

Regarding `N#Cc1ccc(COc2cccc(-c3cc(F)c(Cc4nc5ccc(C(=O)O)cc5n4[C@H]4COC[C@@H]4C(F)F)cc3F)n2)c(F)c1` (single isomer, unassigned) [Example 262], the EC50 stood at 1.07 nM.
